Data set [1] has as its system RBC sickling. Briefly: Sickle inhibition in SS blood suspensions under hypoxia (2.5% oxygen). In kind it is cell-based. To be noted: Homo sapiens, 2 mM compound, homozygous SCD blood, 4 biological replicates. As to the method:
All compounds (Comp 1-13) and comparator molecules (VZHE-039, PP-14, INN-310, and Voxelotor) were evaluated following established procedures. Blood samples from individual donors with homozygous SCD (obtained with informed consent) were diluted using Hemox buffer solution with the addition of glucose (10 mM) and BSA (0.2%) to adjust hematocrit of the blood suspensions to 20%, which standardizes the procedure to normalize the ratio of RBCs to drug, for assay consistency and reproducibility. Briefly, blood suspensions were incubated under room air in the presence of various concentrations of test compounds (0-2 mM) at 37° ° C. for 1 hour in 96-well round bottom plates. Subsequently, the suspensions were incubated with a hypoxic gas mixture (2.5% Oxygen gas/balance Nitrogen gas) at 37° C. for up to 2 hours prior to fixation with 2% glutaraldehyde solution without exposure to air. The fixated blood aliquots were evaluated by microscopic morphological analysis (image analysis on Image J software) to identify the proportion of sickled and non-sickled RBCs, and sickle inhibition calculated based on the % change from negative control (DMSO).

Data set [2] is described as follows: ADME properties / oral bioavailability. Particulars: in vivo.
Data set [3] relates to RBC sickling. The data set can be described thus: Oxygen-independent sickle inhibition in SS blood suspensions under anoxia (100% nitrogen). To be noted: for inhibition at 2000 µM: Homo sapiens, 2 mM compound, homozygous SCD blood, 4 biological replicates; for inhibition at 2000 µM / polymer destabilizing effects (sickle inhibition in anoxia), in words: anoxia; for polymer destabilizing effects in anoxia time-course experiments, in words: up to 2.5 h. It counts as cell-based, human. The method, then:
To establish oxygen-independent sickle inhibition, the incubation chamber was subsequently opened and exposed to room air for 15 minutes to ensure complete re-oxygenation and reversal of the sickled cells to normal round cells. Reversal was confirmed by microscopy. The incubation chamber was then closed, and the assay was repeated with incubation in 100% nitrogen gas for 1 hour (for screening), or up to 2.5 h (for time-course studies), with collection and fixation of blood aliquots at defined intervals. Aliquot samples were again subjected to microscopic morphological analysis of bright field images to identify the proportion of sickled and non-sickled cells, and sickle inhibition calculated.

Data set [4] is described as follows: 14-day repeat-dose safety (clinical observations, histopathology) in rats. In kind it is in vivo, rat. Particulars: 100 mg/kg oral once daily for 14 days. The method, then:
(§1) Repeat oral doses of each compound were administered by oral gavage for 14 days to male and female SD rats (n=3). […] Steady state exposures for the final dosing interval on Day 14 were similar to total compound exposure from single-dose PK.
(§2) Repeat doses of each compound were administered once daily as oral suspensions by gavage in 0.5% carboxy methylcellulose for 14 days at 100 mg/kg. Whole blood was collected at 7 time-points for up to 24 hours during the final dosing interval on Day 14. Clinical observations, body weights, and food consumption were recorded throughout the 14 day study. Clinical chemistry and hematologic parameters were assessed, and histopathology was performed on organs after 14 days of exposure to study drug.

For another data set, the target named is T1, Hb (Homo sapiens, UniProt P69905).
T1 construct: Hemoglobin modification, studies using non-sickling AA blood; from tissue; host or cells: non-sickling AA blood (red cells)
Briefly: Occupancy/dose-dependent p50 shift in human non-sickle blood. It counts as cell-based. Particulars: compared to Voxelotor at equivalent drug-Hb occupancy levels. As to the method:
Non-sickling human blood was incubated with test compounds at 0.25-2 mM concentrations at 37 °C for 1 hour in 96-well round bottom plates. At conclusion, RBCs were washed once with PBS, followed by lysis with deionized water. Approximately 100 μl aliquots of individual lysates were added to 3 mL of 0.1M potassium phosphate buffer, pH 7.0 in a cuvette and subjected to hemoximetry analysis using a Hemox™ Analyzer (TCS Scientific Corp.) as previously described. Change in p50 values (Δp50) was calculated by subtracting the p50 values of treated samples from the value of the control sample and expressing the difference as a percentage of control p50 values.

Data set [5] is described as follows: Single-dose oral pharmacokinetics in rats. In kind it is in vivo, rat. The method, then:
Single-dose pharmacokinetics (PK) in male Sprague Dawley (SD) rats (n=4) were assessed for each compound, and the maximum or peak whole blood concentration and area under the curve are shown in Table 5.
Single doses of each compound were administered as oral suspensions by gavage in 0.5% carboxy methylcellulose at 100 mg/kg. Whole blood levels were collected for at least 72 hours after dose administration. Bioanalyses were performed with liquid chromatography-tandem mass spectrometry […].

The nature of data set [6]: 14-day repeat-dose oral pharmacokinetics in rats. In kind it is in vivo, rat. To be noted: 14-day repeat oral doses. As to the method:
as §1, §2

Data on 18 compounds can be found in patent US12065408B2, “Benzaldehyde compounds with direct polymer destabilizing effects to treat sickle cell disease” (VIRGINIA COMMONWEALTH UNIVERSITY, priority 2022, dated 2024).

SMILES strings stand for the structures.

The inhibition is the drop in the measured response relative to a control, in per cent.

T1 sequence (P69905 2-142 limits assumed): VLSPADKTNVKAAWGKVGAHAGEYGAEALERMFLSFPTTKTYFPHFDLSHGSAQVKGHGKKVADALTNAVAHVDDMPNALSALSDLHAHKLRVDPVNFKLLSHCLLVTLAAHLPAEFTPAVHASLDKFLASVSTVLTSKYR
T1 sequence (P68871 2-147 partner limits assumed): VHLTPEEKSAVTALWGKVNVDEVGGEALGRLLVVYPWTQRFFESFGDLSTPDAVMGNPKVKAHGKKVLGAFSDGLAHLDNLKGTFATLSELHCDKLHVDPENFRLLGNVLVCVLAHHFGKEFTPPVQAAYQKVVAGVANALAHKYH

For the compound `O=Cc1c(O)cccc1OCc1cccnc1` [Comp 1, 2-hydroxy-6-(pyridin-3-ylmethoxy)benzaldehyde], the inhibition at 2000 µM in the data set on RBC sickling [1] was found to be 74.8 ± 15.9%. For the same compound, the “absorption, distribution, metabolism and elimination (ADME) properties” value (“absorption, distribution” for short) in data set [2] was “acceptable”. In the data set with RBC sickling [3], the inhibition at 2000 µM was 71.9 ± 16%; the “polymer destabilizing effects (sickle inhibition in anoxia), in words” value is “most potent polymer destabilizers discovered to date”; the “polymer destabilizing effects in anoxia time-course experiments, in words” value is “most potent and sustained polymer destabilizing effects observed to date”. In data set [4], the “clinical and histopathologic changes after 14 days of exposure” value (“clinical and histopathologic changes” for short) is recorded as “No clinical or histopathologic changes”. Besides, at Hb, the “changes in p50 of Hb in human blood” value was “relatively weak changes in p50”. In data set [5], the “oral exposure levels, single dose, in words” value is reported as “greatest oral exposure levels observed to date”.

`O=Cc1c(O)cccc1OCc1ccccn1` [Comp 2, 2-hydroxy-6-(pyridin-2-ylmethoxy)benzaldehyde]: the inhibition at 2000 µM in the data set on RBC sickling [1] was determined as 72.8 ± 13%. For the same compound, the “absorption, distribution” value in data set [2] is listed as “acceptable”. For the same compound, in the data set on RBC sickling [3], the inhibition at 2000 µM came to 63.2 ± 17.2%; the “polymer destabilizing effects (sickle inhibition in anoxia), in words” value is given as “most potent polymer destabilizers discovered to date”; the “polymer destabilizing effects in anoxia time-course experiments, in words” value was “most potent and sustained polymer destabilizing effects observed to date”. In addition, the “clinical and histopathologic changes” value in data set [4] is on record as “No clinical or histopathologic changes”. Further, the “changes in p50 of Hb in human blood” value at Hb was “relatively weak changes in p50”. For the same compound, the “oral exposure levels, single dose, in words” value in data set [5] is “greatest oral exposure levels observed to date”. Besides, the “oral exposure levels, repeat dose, in words” value in data set [6] is “greatest oral exposure levels observed to date”.

`O=Cc1c(O)cccc1OCc1ccncc1` [Comp 3, 2-hydroxy-6-(pyridin-4-ylmethoxy)benzaldehyde]: the inhibition at 2000 µM came out at 54.1 ± 14.7% with RBC sickling [1] and 26.2 ± 8.6% in the data set on RBC sickling [3].

As to `O=Cc1c(O)cccc1OCc1cncc(F)c1` [Comp 4, 2-((5-fluoropyridin-3-yl)methoxy)-6-hydroxybenzaldehyde], the inhibition at 2000 µM stood at 64.3 ± 24.5% with RBC sickling [1] and 69.6 ± 13.4% in the data set with RBC sickling [3].

On to `O=Cc1c(O)cccc1OCc1ncccc1F` [Comp 5, 2-((3-fluoropyridin-2-yl)methoxy)-6-hydroxybenzaldehyde], for which the inhibition at 2000 µM in the data set on RBC sickling [1] was determined as 66.6 ± 9.4%; in the data set with RBC sickling [3] it was 66.5 ± 21.1%. In addition, the “absorption, distribution” value in data set [2] was “acceptable”. Besides, the “clinical and histopathologic changes” value in data set [4] is recorded as “No clinical or histopathologic changes”. Also, the “changes in p50 of Hb in human blood” value at Hb is “relatively weak changes in p50”. In addition, in data set [5], the “oral exposure levels, single dose, in words” value is reported as “greatest oral exposure levels observed to date”. In data set [6], the “oral exposure levels, repeat dose, in words” value is listed as “greatest oral exposure levels observed to date”.

Take `O=Cc1c(O)cccc1OCc1cccnc1F` [Comp 6, 2-((2-fluoropyridin-3-yl)methoxy)-6-hydroxybenzaldehyde]: the inhibition at 2000 µM was found to be 67.1 ± 5.8% in the data set with RBC sickling [1] and 32.6 ± 28.5% in the data set with RBC sickling [3].

In the case of `O=Cc1c(O)cccc1OCc1cccnc1Cl` [Comp 7, 2-((2-chloropyridin-3-yl)methoxy)-6-hydroxybenzaldehyde], the results for the inhibition at 2000 µM in the data set on RBC sickling [1] and in the data set on RBC sickling [3] were 36.1 ± 19.7% and 9.4 ± 10.7%, respectively.

In the case of `O=Cc1c(O)cccc1OCc1ncccc1Cl` [Comp 8, 2-((3-chloropyridin-2-yl)methoxy)-6-hydroxybenzaldehyde], the inhibition at 2000 µM amounted to 69.7 ± 8% with RBC sickling [1] and 18.3 ± 8.4% in the data set with RBC sickling [3].

Take `O=Cc1c(F)cc(F)cc1OCc1ccccn1` [Comp 9, 2,4-difluoro-6-(pyridin-2-ylmethoxy)benzaldehyde]: the inhibition at 2000 µM in the data set with RBC sickling [1] is 68.1 ± 29.8%. Also, in the data set with RBC sickling [3], the inhibition at 2000 µM was 0% and the “polymer destabilizing effects (sickle inhibition in anoxia), in words” value was “completely negates the polymer destabilization effects”.

For the compound `O=Cc1c(O)cccc1OCc1cncnc1` [Comp 10, 2-hydroxy-6-(pyrimidin-5-ylmethoxy)benzaldehyde], the inhibition at 2000 µM stood at 76.6 ± 10.9% with RBC sickling [1] and 75.6 ± 18.5% in the data set with RBC sickling [3].

For the compound `O=Cc1c(O)cccc1OCc1ncccn1` [Comp 11, 2-hydroxy-6-(pyrimidin-2-ylmethoxy)benzaldehyde], the inhibition at 2000 µM with RBC sickling [1] was determined as 67.4 ± 18.2%; in the data set with RBC sickling [3], 45.1 ± 10.8%.

As to `O=Cc1c(OCc2cccnc2)ccc(F)c1O` [Comp 12, 3-fluoro-2-hydroxy-6-(pyridin-3-ylmethoxy)benzaldehyde], the inhibition at 2000 µM in the data set with RBC sickling [1] is 68.6 ± 12%. For the same compound, in the data set on RBC sickling [3], the inhibition at 2000 µM turned out to be 28.7 ± 6.9% and the “polymer destabilizing effects (sickle inhibition in anoxia), in words” value is “significantly reduced the potency of polymer inhibition”.

With `O=Cc1c(F)cc(F)cc1OCc1ncccc1F` [Comp 13, 2,4-difluoro-6-((3-fluoropyridin-2-yl)methoxy)benzaldehyde], the inhibition at 2000 µM with RBC sickling [1] came out at 63.6 ± 24.3%. For the same compound, in the data set with RBC sickling [3], the inhibition at 2000 µM is -0.5 ± 2.7% and the “polymer destabilizing effects (sickle inhibition in anoxia), in words” value is “completely negates the polymer destabilization effects”.

With `COc1ccc(OCc2ccccn2)c(C=O)c1` [INN-310, reference compound], the inhibition at 2000 µM is 69.9 ± 20% with RBC sickling [1] and 17.9 ± 7% with RBC sickling [3]. The “polymer destabilizing effects (sickle inhibition in anoxia), in words” value with RBC sickling [3] is “only weak potency in anoxia”.

As for `O=Cc1c(O)cccc1OCc1ccccc1` [Reference A, 2-(benzyloxy)-6-hydroxybenzaldehyde, reference compound], the “polymer destabilizing effects (sickle inhibition in anoxia), in words” value with RBC sickling [3] is given as “potent polymer destabilizing effects”.

Consider `COc1ccc(OCc2cccc(CO)n2)c(C=O)c1` [TD-7, reference compound], for which the inhibition at 2000 µM with RBC sickling [1] came out at 80.6 ± 5.8%; in the data set with RBC sickling [3] it was 20.4 ± 2.9%.

Turning to `O=Cc1c(O)cccc1OCc1cccc(CO)n1` [VZHE-039, reference compound], the results for the inhibition at 2000 µM in the data set with RBC sickling [1] and with RBC sickling [3] were 75.3 ± 14.3% and 68.9 ± 17.7%, respectively. In addition, the “clinical and histopathologic changes” value in data set [4] is “Both clinical and histopathologic changes in the liver, including hepatocyte necrosis”.

With `CC(C)n1nccc1-c1ncccc1COc1cccc(O)c1C=O` [Voxelotor, reference compound], the results for the inhibition at 2000 µM with RBC sickling [1] and in the data set on RBC sickling [3] were 79.9 ± 6.2% and 1.5 ± 5.5%, respectively. In the data set on RBC sickling [3], the “polymer destabilizing effects (sickle inhibition in anoxia), in words” value is reported as “did not demonstrate any sickle inhibition in anoxic conditions”.
